Experimental data: patent US11066421B1, “Synthetic cinchona alkaloids against cancer” (Ares Pharmaceuticals, LLC, priority 2021, dated 2021)
Entries after “also recorded” stand apart in the source; their conditions may differ.

What was measured:
BT-20 = experiment: Confocal laser scanning microscopy apoptosis, BT-20; type: cell-based, human; conditions: 100 nM, 48 hours
Description: Confocal Laser Scanning Microscopy. Cells were treated with cinchona alkaloids or PBS in culture medium for 48 hours. After 48 hr of culture, cells were co-stained with a rabbit polyclonal antitubulin antibody (Green Fluorescence) and the DNA-specific dye Toto-3 (Blue Fluorescence) and examined by laser scanning confocal microscopy using a Bio-Rad MRC-1024 Laser Scanning Confocal Microscope equipped with a Kr/Ar laser (Bio-Rad, Hercules, Calif., USA) mounted on a Nikon Eclipse E800 upright microscope with high numerical aperture objectives (Nikon, Melville, N.Y., USA), as described (F. M. Uckun, et al., 2010, Proc. Natl. Acad. Sci. USA, 107: 2902-7; F. M. Uckun., et al., 2010, British Journal of Haematology, 149: 508-17; F. M. Uckun, et al., 2013, Blood. 121:4348-54; F. M. Uckun et al., 2010, Proc. Natl Acad. Sci. USA 107:16852-57; F. M. Uckun et al., 2012, Proc. Natl Acad. Sci. USA 109:18072-77). Cell lines. BT-20 (ATCC HTB-19), a triple negative breast cancer cell line, PC-3 (ATCC CRL-1435) a CRPC cell line (small cell endocrine carcinoma) derived from a Stage IV prostate cancer patient with bone metastases were obtained from American Type Culture Collection (ATCC) (Manassas, Va.). […] Cells were washed in PBS and counterstained with the DNA-specific dye TOTO-3 (blue fluorescence) (Molecular Probes Inc., Eugene, Oreg.) for 10 min at a dilution of 1:1000. […]

[1] = tested on: M24-MET human melanoma cells; experiment: CB.17 SCID mouse xenograft model of human malignant melanoma; type: in vivo; conditions: 5 mg/kg i.p. twice daily, 5 days on 2 days off
Description: Cell Lines. Human melanoma cell line M24-MET (ATCC CRL-12270) was obtained from American Type Culture Collection (Rockville, Md.) and maintained as a continuous cell line in DMEM supplemented with 10% fetal calf serum (FCS), 4 mm glutamine, 100 units/ml penicillin G, and […] streptomycin sulfate. All of the tissue culture reagents were obtained from Life Technologies, Inc. Inc. (Gaithersburg, Md.).
Mice. Female CB.17 SCID mice were obtained from Taconic (Germantown, N.Y.) and housed in a specific-pathogen-free room located in a secure indoor facility with controlled temperature, humidity, and noise levels. Mice were housed in micro-isolator cages and fed with autoclaved rodent chow. Water was also autoclaved and supplemented with trimethoprim/sulfamethoxazol 3 days a week. […]
SCID Mouse Model of Human Malignant Melanoma. […] The size of subcutaneous tumors were measured on day 14 and day 16 to evaluate the ability of AP-1 to inhibit tumor growth in this SCID mouse xenograft model of melanoma. Tumor volumes were calculated using the formula for the volume of a prolate spheroid, V=4/3×3.14×length/2×width/2×depth/2.

In the case of “2,4,6-Tri (9-O-dihydrocinchoninyl)pyrimidine [AP-5]”, the “signs of apoptosis by confocal imaging” value (BT-20) is reported as “virtually all of the BT-20 or PC-3 cells treated with AP-5 showed signs of advanced apoptosis; also recorded: virtually all of the BT-20 cells treated with AP-5 showed signs of advanced apoptosis”.
For `C=CC1CN2CCC1CC2C(Oc1cc(OC(c2ccnc3ccccc23)C2CC3CCN2CC3C=C)nc(OC(c2ccnc3ccccc23)C2CC3CCN2CC3C=C)n1)c1ccnc2ccccc12` (stereo not drawn) [AP-1, 2,4,6-Tri(9-O-cinchoninyl)pyrimidine], the tumor progression [1] was “significantly slowed down the tumor progression” and the average tumor volume ([1]; day 16, from day 7) was 484.3±76.5 mm3.
